Measurements: article PMC9667936, “Functional mapping of the 14-3-3 hub protein as a guide to design 14-3-3 molecular glues” (Chemical Science, 2022)
Where two headings read alike, the source gives them in different places. Where a SMILES comes first, the peptide text is derived from it. [ ]: non-standard residue; d: D form. ξ: configuration not given here. Phe(4-NO2) = N[C@@H](Cc1ccc([N+](=O)[O-])cc1)C(=O)O; ξAla(4-thiazolyl) = NC(Cc1cscn1)C(=O)O; pS = N[C@@H](COP(=O)(O)O)C(=O)O; β3hS = N[C@@H](CO)CC(=O)O; Nva = CCC[C@H](N)C(=O)O; βAla = NCCC(=O)O

Molecular target: T1, 14-3-3γ (Homo sapiens, UniProt P61981)
T1 construct: made in house; host or cells: E. coli NiCo21 (DE3)
T1 sequence (P61981 1-247): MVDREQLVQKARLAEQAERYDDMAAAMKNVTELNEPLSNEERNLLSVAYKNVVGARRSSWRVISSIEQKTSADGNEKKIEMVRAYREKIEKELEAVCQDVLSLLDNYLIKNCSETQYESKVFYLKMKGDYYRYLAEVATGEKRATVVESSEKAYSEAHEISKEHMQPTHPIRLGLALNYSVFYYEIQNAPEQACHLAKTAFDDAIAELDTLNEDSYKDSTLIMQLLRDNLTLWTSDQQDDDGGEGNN
Assay: Isothermal titration calorimetry (ITC) of 14-3-3 binding to peptide
Settings: for ΔG / Kd / ΔH / -TΔS: 25 °C; for Kd: Table S6 (unit as in Table S5)
Experimental: 14-3-3γ protein expression (FP/ITC experiments)
A pPROEX HTb expression vector encoding the human 14-3-3 protein gamma (14-3-3γ) with an N-terminal his6-tag was transformed by heat shock into NiCo21 (DE3) competent cells. Single colonies were cultured in 50 mL LB medium (100 µg/mL ampicillin). After overnight incubation at 37 °C, cultures were transferred to 2 L TB media (100 µg/mL ampicillin, 1 mM MgCl2) and incubated at 37 °C until an OD600 nm of 0.8-1.2 was reached. Protein expression was then induced with 0.4 mM isopropyl-β-d-thiogalactoside (IPTG), and cultures were incubated overnight at 18 °C. Cells were harvested by centrifugation (8600 rpm, 20 minutes, 4 °C) and resuspended in lysis buffer (50 mM Hepes, pH 8.0, 300 mM NaCl, 12.5 mM imidazole, 5 mM MgCl2, 2 mM βME) containing cOmplete™ EDTA-free Protease Inhibitor Cocktail tablets (1 tablet/100 ml lysate) and benzonase (1 µl/100 ml). After lysis using a C3 Emulsiflex-C3 homogenizer (Avestin), the cell lysate was cleared by centrifugation (20000 rpm, 30 minutes, 4 °C) and purified using Ni2+-affinity chromatography (Ni-NTA superflow cartridges, Qiagen).
Typically two 5 mL columns (flow 5 mL/min) were used for a 2 L culture in which the lysate was loaded on the column washed with 10 CV wash buffer (50 mM Hepes, pH 8.0, 300 mM NaCl, 25 mM imidazole, 2 mM βME) and eluted in several fractions (2-4 CV) of elution buffer (50 mM Hepes, pH 8.0, 300 mM NaCl, 250 mM imidazole, 2 mM βME). Fractions containing the 14-3-3 protein were combined and dialyzed into 25 mM HEPES pH 8.0, 100 mM NaCl, 10 mM MgCl2, 500 µM TCEP. […]
The peptides 1 and 2a-d were synthesized on 50 µmol scale on a Rink amide MBHA resin (Novabiochem, 0.52 mmol/g loading) using an automated Intavis MultiPep RSi peptide synthesizer.
Deprotection was performed twice per cycle with 20% v/v piperidine in DMF for 8 minutes. Fmoc-protected amino acids were mixed in 5 equivalents of HBTU and 9 equivalents of DIPEA in DMF, and coupled to the resin. With the exception of phosphoserine, which was coupled once for 60 minutes, all amino acids were coupled to the resin twice for 30 minutes. Capping of unreacted amino acids was performed with a mixture of acetic anhydride/pyridine/DMF (1:1:3) for 5 minutes. βAla was incorporated as a spacer between the sequence and Lys(Alloc), to which a FITC fluorophore will be coupled for fluorescence anisotropy studies.
The peptides 1 and 2e-i were synthesized manually on a 50 µmol scale using Rink amide MBHA resin (Novabiochem, 0.52 mmol/g loading) via Fmoc based solid phase peptide synthesis. […]
(lex: 485 ± 20 nm; lem: 535 ± 25 nm; mirror: Dichroic 510; flashes: 20; integration time: 50 ms; settle time:
0 ms; gain: optimal; and Z-position: calculated from well). […]
Data was obtained and averaged based on two
To determine the cooperativity parameters from the 2D-titration of 14-3-3/ChREBP/2d (as described above) we have used the general framework for straightforward model construction of multi-component thermodynamic equilibrium systems as described by Geertjens et al. (2021).10 This general platform generates a model to describe multi-component equilibrium systems when given a system description.
In our case we gave the following system description: […]
α (with 95% confidence interval) and the error-landscape of the determine parameters.
Fluorescence anisotropy (FA) – Selectivity study: Peptides representing 14-3-3 binding partners (including ChREBP) were titrated in a 2-fold dilution series (starting at 100 µM) to 20 nM of fluorescein-labeled peptide 2d in presence and absence of, respectively, 2 µM 14-3-3γ in FA buffer (10 mM HEPES pH 7.4, 150 mM NaCl, 0.1% (v/v) Tween20, 0.1% (w/v) BSA). Dilution series were made in a polystyrene (non-binding) low-volume Corning Black Round Bottom 384-well plates (Corning 4514 or 4511).
Measurements were performed directly after plate preparation, using a Tecan Infinite F500 plate reader at room temperature (lex: 485 ± 20 nm; lem: 535 ± 25 nm; mirror: Dichroic 510; flashes: 20; integration […]

[1] = Table S5, ITC Kd / Kd of peptide 1, first unlabelled line (replicate 1)
[2] = Table S5, ITC Kd / Kd of peptide 1, second unlabelled line (replicate 2)
[3] = Table S5, ITC Kd of peptide divided by Kd of peptide 1, mean of n = 2
[4] = Table S5, ΔG minus ΔG of peptide 1, ITC, first unlabelled line (replicate 1)
[5] = Table S5, ΔG minus ΔG of peptide 1, ITC, second unlabelled line (replicate 2)
[6] = Table S5, ΔG of peptide minus ΔG of peptide 1, ITC, mean of n = 2
[7] = ITC, average of two runs, read-out: Kd
[8] = Table S6 (unit given in Fig. 4 legend), ITC, average of two runs
[9] = Table S6, ITC, average of two runs

| Compound | Fold change to 1 [1] | Fold change to 1 [2] | ΔG (Table S5, ITC, mean of n = 2) [kcal/mol] | ΔG (Table S5, ITC, replicate 1) [kcal/mol] | ΔG (Table S5, ITC, replicate 2) [kcal/mol] | ΔΔG to 1 [4] [kcal/mol] | ΔΔG to 1 [5] [kcal/mol] | ΔΔG to 1 [6] [kcal/mol] | Kd [7] [nM] | Kd (ITC, run 1) | Kd (ITC, run 2) | ΔH [8] | -TΔS [9] | ΔG [9] | -TΔS (Table S6, ITC, run 1) | ΔG (Table S6, ITC, run 1) | ΔH (Table S6, ITC, run 1) | -TΔS (Table S6, ITC, run 2) | ΔG (Table S6, ITC, run 2) | ΔH (Table S6, ITC, run 2) | also measured |
| --- | --- | --- | --- | --- | --- | --- | --- | --- | --- | --- | --- | --- | --- | --- | --- | --- | --- | --- | --- | --- | --- |
| CCC[C@H](NC(=O)[C@H](N)CCCCN)C(=O)N[C@@H](Cc1ccc([N+](=O)[O-])cc1)C(=O)N[C@@H](C)C(=O)N[C@@H](COP(=O)(O)O)C(=O)N[C@@H](Cc1ccc([N+](=O)[O-])cc1)C(=O)N[C@@H](CO)CC(=O)NCCC(=O)N[C@@H](Cc1ccc([N+](=O)[O-])cc1)C(=O)N[C@@H](CCCCN)C(N)=O [3a] (H-[dK][Nva][Phe(4-NO2)]A[pS][Phe(4-NO2)][β3hS][βAla][Phe(4-NO2)]K-NH2; N-terminus and C-terminus assumed) | 2.0 | 1.5 | -9.7 | -9.6 | -9.8 | 0.4 | 0.3 | 0.3 | 79.1 | 8,86E-08 M | 6,97E-08 M | -7,40 kcal mol^-1 | -2,29 kcal mol^-1 | -9,69 kcal mol^-1 | -1,624 kcal mol^-1 | -9,622 kcal mol^-1 | -7,998 kcal mol^-1 | -2,955 kcal mol^-1 | -9,764 kcal mol^-1 | -6,809 kcal mol^-1 | Fold change to 1 [3]: 1.8 |
| CCC[C@H](NC(=O)[C@H](N)CCCCN)C(=O)N[C@@H](Cc1ccc([N+](=O)[O-])cc1)C(=O)NC(Cc1cscn1)C(=O)N[C@@H](COP(=O)(O)O)C(=O)N[C@@H](Cc1ccc(O)cc1)C(=O)N[C@@H](CO)CC(=O)NCCC(=O)N[C@@H](Cc1ccc([N+](=O)[O-])cc1)C(=O)N[C@@H](CCCCN)C(N)=O (stereo partly drawn) [4a] (H-[dK][Nva][Phe(4-NO2)][ξAla(4-thiazolyl)][pS]Y[β3hS][βAla][Phe(4-NO2)]K-NH2; N-terminus and C-terminus assumed) | 2.8 | 1.3 | -9.6 | -9.4 | -9.8 | 0.6 | 0.2 | 0.4 | 93.6 | 1,26E-07 M | 6,09E-08 M | -6,64 kcal mol^-1 | -2,99 kcal mol^-1 | -9,63 kcal mol^-1 | -3,582 kcal mol^-1 | -9,411 kcal mol^-1 | -5,83 kcal mol^-1 | -2,393 kcal mol^-1 | -9,844 kcal mol^-1 | -7,45 kcal mol^-1 | Fold change to 1 [3]: 2.1 |
| CCC[C@H](NC(=O)[C@H](N)CCCCN)C(=O)N[C@@H](Cc1ccc([N+](=O)[O-])cc1)C(=O)NC(Cc1cscn1)C(=O)N[C@@H](COP(=O)(O)O)C(=O)N[C@@H](Cc1ccccc1)C(=O)N[C@@H](CO)CC(=O)NCCC(=O)N[C@@H](Cc1ccc([N+](=O)[O-])cc1)C(=O)N[C@@H](CCCCN)C(N)=O (stereo partly drawn) [4b] (H-[dK][Nva][Phe(4-NO2)][ξAla(4-thiazolyl)][pS]F[β3hS][βAla][Phe(4-NO2)]K-NH2; N-terminus and C-terminus assumed) | 0.6 | 0.8 | -10.2 | -10.3 | -10.1 | -0.3 | -0.1 | -0.2 | 31.9 | 2,62E-08 M | 3,76E-08 M | -7,40 kcal mol^-1 | -2,87 kcal mol^-1 | -10,24 kcal mol^-1 | -2,391 kcal mol^-1 | -10,34 kcal mol^-1 | -8,024 kcal mol^-1 | -3,345 kcal mol^-1 | -10,13 kcal mol^-1 | -6,783 kcal mol^-1 | Fold change to 1 [3]: 0.7 |
| CCC[C@H](NC(=O)[C@H](N)CCCCN)C(=O)N[C@@H](Cc1ccc([N+](=O)[O-])cc1)C(=O)NC(Cc1cscn1)C(=O)N[C@@H](COP(=O)(O)O)C(=O)N[C@@H](C)C(=O)N[C@@H](CO)CC(=O)NCCC(=O)N[C@@H](Cc1ccc([N+](=O)[O-])cc1)C(=O)N[C@@H](CCCCN)C(N)=O (stereo partly drawn) [4c] (H-[dK][Nva][Phe(4-NO2)][ξAla(4-thiazolyl)][pS]A[β3hS][βAla][Phe(4-NO2)]K-NH2; N-terminus and C-terminus assumed) | 15.0 | 18.9 | -8.3 | -8.4 | -8.3 | 1.6 | 1.7 | 1.7 | 764 | 6,72E-07 M | 8,56E-07 M | -4,81 kcal mol^-1 | -3,54 kcal mol^-1 | -8,35 kcal mol^-1 | -3,445 kcal mol^-1 | -8,421 kcal mol^-1 | -4,976 kcal mol^-1 | -3,629 kcal mol^-1 | -8,278 kcal mol^-1 | -4,649 kcal mol^-1 | ΔΔG of point mutation (ITC) (ITC, relative to 1, mean ± SD, SD): 1.7 ± 0.1 kcal/mol |
